Reference: patent US20240208992A1, “MACROCYCLES AS CFTR MODULATORS” (Idorsia Pharmaceuticals Ltd, priority 2021, published 2024)

Molecular target: human F508del-CFTR (Homo sapiens, UniProt P13569, DEL508-508)
Experiment: F508del-CFTR cell surface expression (corrector activity), DiscoveRx ß-galactosidase complementation chemiluminescence assay in recombinant U2OS cell line;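 note: U2OS cells co-expressing ProLink-tagged F508del-CFTR and a membrane-anchored enzyme acceptor, where more surface CFTR restores β-galactosidase activity measured by chemiluminescence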
Settings: U2OS cell line, 16h compound incubation; for EC50: EC50, F508del-CFTR cell surface expression, geomean values; for Emax: U2OS, in relation to the Emax of the corrector lumacaftor (=100%), arithmetic mean values

human F508del-CFTR, sequence (P13569 with tags, fused parts or gaps DEL508-508): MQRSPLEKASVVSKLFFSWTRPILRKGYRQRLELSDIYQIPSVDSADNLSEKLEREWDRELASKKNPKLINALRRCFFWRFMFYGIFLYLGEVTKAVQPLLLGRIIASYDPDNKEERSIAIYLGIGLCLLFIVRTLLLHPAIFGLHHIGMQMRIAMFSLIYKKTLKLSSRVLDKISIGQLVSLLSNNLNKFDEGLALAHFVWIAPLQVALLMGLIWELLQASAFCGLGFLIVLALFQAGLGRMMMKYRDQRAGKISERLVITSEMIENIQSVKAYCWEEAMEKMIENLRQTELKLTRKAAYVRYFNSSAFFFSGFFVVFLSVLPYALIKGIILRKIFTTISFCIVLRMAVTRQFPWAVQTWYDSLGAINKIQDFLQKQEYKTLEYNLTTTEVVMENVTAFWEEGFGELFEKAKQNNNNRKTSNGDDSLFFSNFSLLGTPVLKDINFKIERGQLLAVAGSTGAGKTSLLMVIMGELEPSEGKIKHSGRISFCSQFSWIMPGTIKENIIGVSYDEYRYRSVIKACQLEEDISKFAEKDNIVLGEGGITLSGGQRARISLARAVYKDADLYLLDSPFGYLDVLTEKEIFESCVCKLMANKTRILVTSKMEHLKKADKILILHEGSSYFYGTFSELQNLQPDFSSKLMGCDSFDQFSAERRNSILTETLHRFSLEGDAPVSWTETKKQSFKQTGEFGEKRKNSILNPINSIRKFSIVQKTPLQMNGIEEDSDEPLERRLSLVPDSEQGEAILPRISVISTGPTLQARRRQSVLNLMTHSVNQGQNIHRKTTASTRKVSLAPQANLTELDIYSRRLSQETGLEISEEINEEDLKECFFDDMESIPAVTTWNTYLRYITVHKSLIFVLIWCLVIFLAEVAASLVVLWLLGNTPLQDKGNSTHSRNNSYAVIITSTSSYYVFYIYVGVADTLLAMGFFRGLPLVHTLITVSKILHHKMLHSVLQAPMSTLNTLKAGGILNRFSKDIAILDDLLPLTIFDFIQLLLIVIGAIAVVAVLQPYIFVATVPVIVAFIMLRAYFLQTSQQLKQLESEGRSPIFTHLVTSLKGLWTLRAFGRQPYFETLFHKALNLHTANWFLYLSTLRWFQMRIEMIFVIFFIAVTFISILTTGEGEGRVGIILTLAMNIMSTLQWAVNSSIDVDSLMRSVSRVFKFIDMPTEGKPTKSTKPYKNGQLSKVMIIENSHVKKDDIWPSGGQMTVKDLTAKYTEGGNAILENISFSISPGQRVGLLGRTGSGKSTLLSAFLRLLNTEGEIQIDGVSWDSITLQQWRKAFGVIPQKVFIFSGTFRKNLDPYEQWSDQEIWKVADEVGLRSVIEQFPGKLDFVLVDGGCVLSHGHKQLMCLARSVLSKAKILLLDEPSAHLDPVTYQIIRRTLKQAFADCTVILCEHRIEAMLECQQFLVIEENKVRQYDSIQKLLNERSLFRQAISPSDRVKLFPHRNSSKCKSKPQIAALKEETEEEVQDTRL

Structure (SMILES) | EC50 [nM] | Emax [%]
COCCCNC(=O)[C@@H]1CC(=O)N(C)[C@@H](CC(C)C)C(=O)N(CCC2CCCCC2)CC(=O)N[C@H](Cc2ccccc2)COc2cccc(OC)c2C(=O)N1 [Example 210, (3R,9S,13S)-3-benzyl-7-(2-cyclohexylethyl)-9-isobutyl-16-methoxy-N-(3-methoxypropyl)-10-methyl-5,8,11,15-tetraoxo-2,3,4,5,6,7,8,9,10,11,12,13,14,15-tetradecahydrobenzo[p][1]oxa[4,7,10,14]tetraazacycloheptadecine-13-carboxamide] | 352 | 108
COc1cccc2c1C(=O)N[C@H](C(=O)NCCc1ccccc1)CC(=O)N(C)[C@@H](CC(C)C)C(=O)N(CCC1CCCCC1)CC(=O)N[C@H](Cc1ccccc1)CO2 [Example 211, (3R,9S,13S)-3-benzyl-7-(2-cyclohexylethyl)-9-isobutyl-16-methoxy-10-methyl-5,8,11,15-tetraoxo-N-phenethyl-2,3,4,5,6,7,8,9,10,11,12,13,14,15-tetradecahydrobenzo[p][1]oxa[4,7,10,14]tetraazacycloheptadecine-13-carboxamide] | 309 | 146
COc1cccc2c1C(=O)N[C@H](C(=O)NCCc1cc(C)no1)CC(=O)N(C)[C@@H](CC(C)C)C(=O)N(CCC1CCCCC1)CC(=O)N[C@H](Cc1ccccc1)CO2 [Example 214, (3R,9S,13S)-3-benzyl-7-(2-cyclohexylethyl)-9-isobutyl-16-methoxy-10-methyl-N-(2-(3-methylisoxazol-5-yl)ethyl)-5,8,11,15-tetraoxo-2,3,4,5,6,7,8,9,10,11,12,13,14,15-tetradecahydrobenzo[p][1]oxa[4,7,10,14]tetraazacycloheptadecine-13-carboxamide] | 292 | 221
CCc1ccc(CCNC(=O)[C@@H]2CC(=O)N(C)[C@@H](CC(C)C)C(=O)N(CCC3CCCCC3)CC(=O)N[C@H](Cc3ccccc3)COc3cccc(OC)c3C(=O)N2)cc1 [Example 215, (3R,9S,13S)-3-benzyl-7-(2-cyclohexylethyl)-N-(4-ethylphenethyl)-9-isobutyl-16-methoxy-10-methyl-5,8,11,15-tetraoxo-2,3,4,5,6,7,8,9,10,11,12,13,14,15-tetradecahydrobenzo[p][1]oxa[4,7,10,14]tetraazacycloheptadecine-13-carboxamide] | 214 | 172
COCCCCCNC(=O)[C@@H]1CC(=O)N(C)[C@@H](CC(C)C)C(=O)N(CCC2CCCCC2)CC(=O)N[C@H](Cc2ccccc2)COc2cccc(OC)c2C(=O)N1 [Example 216, (3R,9S,13S)-3-benzyl-7-(2-cyclohexylethyl)-9-isobutyl-16-methoxy-N-(5-methoxypentyl)-10-methyl-5,8,11,15-tetraoxo-2,3,4,5,6,7,8,9,10,11,12,13,14,15-tetradecahydrobenzo[p][1]oxa[4,7,10,14]tetraazacycloheptadecine-13-carboxamide] | 420 | 102
COc1cccc2c1C(=O)N[C@H](C(=O)NCCc1ccc(-n3cccn3)cc1)CC(=O)N(C)[C@@H](CC(C)C)C(=O)N(CCC1CCCCC1)CC(=O)N[C@H](Cc1ccccc1)CO2 [Example 217, (3R,9S,13S)-N-(4-(1H-pyrazol-1-yl)phenethyl)-3-benzyl-7-(2-cyclohexylethyl)-9-isobutyl-16-methoxy-10-methyl-5,8,11,15-tetraoxo-2,3,4,5,6,7,8,9,10,11,12,13,14,15-tetradecahydrobenzo[p][1]oxa[4,7,10,14]tetraazacycloheptadecine-13-carboxamide] | 202 | 135
COc1cc(CCNC(=O)[C@@H]2CC(=O)N(C)[C@@H](CC(C)C)C(=O)N(CCC3CCCCC3)CC(=O)N[C@H](Cc3ccccc3)COc3cccc(OC)c3C(=O)N2)ccc1N [Example 218, (3R,9S,13S)-N-(4-amino-3-methoxyphenethyl)-3-benzyl-7-(2-cyclohexylethyl)-9-isobutyl-16-methoxy-10-methyl-5,8,11,15-tetraoxo-2,3,4,5,6,7,8,9,10,11,12,13,14,15-tetradecahydrobenzo[p][1]oxa[4,7,10,14]tetraazacycloheptadecine-13-carboxamide] | 353 | 143
COc1cccc(CCNC(=O)[C@@H]2CC(=O)N(C)[C@@H](CC(C)C)C(=O)N(CCC3CCCCC3)CC(=O)N[C@H](Cc3ccccc3)COc3cccc(OC)c3C(=O)N2)n1 [Example 220, (3R,9S,13S)-3-benzyl-7-(2-cyclohexylethyl)-9-isobutyl-16-methoxy-N-(2-(6-methoxypyridin-2-yl)ethyl)-10-methyl-5,8,11,15-tetraoxo-2,3,4,5,6,7,8,9,10,11,12,13,14,15-tetradecahydrobenzo[p][1]oxa[4,7,10,14]tetraazacycloheptadecine-13-carboxamide] | 258 | 103
CC(C)C[C@H]1C(=O)N2CCOC[C@@H]2C(=O)N[C@H](Cc2ccccc2)COc2cnc3ccccc3c2C(=O)N[C@H](C(=O)NCCc2cc(C(F)(F)F)no2)CC(=O)N1C [Example 221, (9S,13S,19aR,22R)-22-benzyl-13-isobutyl-12-methyl-7,11,14,20-tetraoxo-N-(2-(3-(trifluoromethyl)isoxazol-5-yl)ethyl)-7,8,9,10,11,12,13,14,16,17,19,19a,20,21,22,23-hexadecahydro-[1,4]oxazino[3′,4′:6,7][1]oxa[4,7,10,14]tetraazacycloheptadecino[17,16-c]quinoline-9-carboxamide] | 833 | 229
COc1cccc(CCNC(=O)[C@@H]2CC(=O)N(C)[C@@H](CC(C)C)C(=O)N3CCOC[C@@H]3C(=O)N[C@H](Cc3ccccc3)COc3ccc4ccccc4c3C(=O)N2)c1 [Example 222, (4aR,7R,18S,22S)-7-Benzyl-22-isobutyl-N-(3-methoxyphenethyl)-21-methyl-5,16,20,23-tetraoxo-1,2,4,4a,5,6,7,8,16,17,18,19,20,21,22,23-hexadecahydronaphtho[1,2-p][1,4]oxazino[3,4-f][1]oxa[4,7,10,14]tetraazacycloheptadecine-18-carboxamide] | 216 | 249
CC(C)C[C@H]1C(=O)N(C)CC(=O)N[C@H](Cc2ccccc2)COc2cc3c(cc2C(=O)N[C@H](C(=O)NCCc2ccc4c(c2)OCO4)CC(=O)N1C)OCO3 [Example 223, (7R,13S,17S)-N-(2-(benzo[d][1,3]dioxol-5-yl)ethyl)-7-benzyl-13-isobutyl-11,14-dimethyl-9,12,15,19-tetraoxo-6,7,8,9,10,11,12,13,14,15,16,17,18,19-tetradecahydro-[1,3]dioxolo[4′,5′:4,5]benzo[1,2-p][1]oxa[4,7,10,14]tetraazacycloheptadecine-17-carboxamide] | 388 | 141
COc1cccc(CCNC(=O)[C@@H]2CC(=O)N(C)[C@@H](CC(C)C)C(=O)N(C)CC(=O)N[C@H](Cc3ccccc3)COc3cc4c(cc3C(=O)N2)OCO4)c1 [Example 224, (7R,13S,17S)-7-benzyl-13-isobutyl-N-(3-methoxyphenethyl)-11,14-dimethyl-9,12,15,19-tetraoxo-6,7,8,9,10,11,12,13,14,15,16,17,18,19-tetradecahydro-[1,3]dioxolo[4′,5′:4,5]benzo[1,2-p][1]oxa[4,7,10,14]tetraazacycloheptadecine-17-carboxamide] | 340 | 144
